According to patent publication US20250011368A1, “DLL3 TARGETING PEPTIDES AND CONSTRUCTS THEREOF” (MARIANA ONCOLOGY INC., priority 2023, published 2025):
Numbered stars: 1 amine (or outer) side, 2 acyl side, 3 side chain; on linkers, the order of the positions; unused ones are H or OH. Bridge positions count the residues as written; N and C are the ends. Square brackets hold non-standard residues; d marks the D form. Peptide text beside a SMILES is read from it. * marks the point of attachment. X11 = O=C(O)CN1CCN(CC(=O)O)CCN(CC(=O)NCCCC[C@@H](NC(=O)COCCOCCOCCOCCOCCOCCOCCOCCNC(=O)Cc2ccc(Br)cc2)C(=O)NCCOCCOCCOCCOCCOCCOCCOCCOCC(=O)*)CCN(CC(=O)O)CC1; DOTA = O=C(O)CN1CCN(CC(=O)O)CCN(CC(=O)*)CCN(CC(=O)O)CC1; Trp(5-F) = N[C@@H](Cc1c[nH]c2ccc(F)cc12)C(=O)O; Phe(2-CF3) = N[C@@H](Cc1ccccc1C(F)(F)F)C(=O)O; Trp(7-aza) = N[C@@H](Cc1c[nH]c2ncccc12)C(=O)O; Pro(trans-4-F) = O=C(O)[C@@H]1C[C@@H](F)CN1; 2Nal = N[C@@H](Cc1ccc2ccccc2c1)C(=O)O; Gly(4-THP) = N[C@H](C(=O)O)C1CCOCC1; pXylylene = c1cc(C[*:2])ccc1C[*:1]; Nva(3-Et) = CCC(CC)[C@H](N)C(=O)O; Tle = CC(C)(C)[C@H](N)C(=O)O; Nle = CCCC[C@H](N)C(=O)O

The compounds below were run against T1, human DLL3 (Homo sapiens, UniProt Q9NYJ7) (assay: Affinity determination by Surface Plasmon Resonance (SPR)). Settings: not given.
T1 sequence (Q9NYJ7 27-618): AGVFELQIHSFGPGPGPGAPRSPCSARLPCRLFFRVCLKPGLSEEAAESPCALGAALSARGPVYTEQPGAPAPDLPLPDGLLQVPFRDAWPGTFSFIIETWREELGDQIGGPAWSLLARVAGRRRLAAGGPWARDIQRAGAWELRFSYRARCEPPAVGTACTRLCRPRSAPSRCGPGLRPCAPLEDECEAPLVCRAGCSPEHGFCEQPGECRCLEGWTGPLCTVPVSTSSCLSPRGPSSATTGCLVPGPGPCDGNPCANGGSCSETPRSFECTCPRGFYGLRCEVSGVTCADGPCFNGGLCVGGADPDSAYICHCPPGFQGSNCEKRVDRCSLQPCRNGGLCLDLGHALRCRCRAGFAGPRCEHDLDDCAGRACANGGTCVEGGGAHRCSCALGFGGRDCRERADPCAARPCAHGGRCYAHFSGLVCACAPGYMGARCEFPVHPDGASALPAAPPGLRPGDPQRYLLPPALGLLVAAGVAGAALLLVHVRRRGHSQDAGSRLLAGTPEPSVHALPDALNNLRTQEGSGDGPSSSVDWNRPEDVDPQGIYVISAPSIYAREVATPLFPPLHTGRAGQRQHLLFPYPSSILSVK
Assay type: binding
Method in brief: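 Biotinylated human DLL3 was captured on a streptavidin chip with a reference surface. Compounds at several concentrations were injected at 100 μL/minute in phosphate buffer (137 mM NaCl, 2.7 mM KCl, 0.05% P20, 2% DMSO). Affinity and kinetics came from 1:1 model fits of the sensorgrams.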

How did the Kd turn out when `CC[C@H](C)[C@H](NC(=O)[C@@H](NC(=O)[C@H](Cc1c[nH]c2ccccc12)NC(C)=O)[C@@H](C)O)C(=O)N[C@H]1CSSC[C@@H](C(=O)N[C@@H](Cc2c[nH]c3ccccc23)C(=O)N2CCC[C@H]2C(=O)N[C@H](CCCCNC(=O)COCCOCCOCCOCCOCCOCCOCCOCCNC(=O)[C@@H](CCCCNC(=O)CN2CCN(CC(=O)O)CCN(CC(=O)O)CCN(CC(=O)O)CC2)NC(=O)COCCOCCOCCOCCOCCOCCOCCOCCNC(=O)Cc2ccc(Br)cc2)C(N)=O)NC(=O)[C@H](CC(=O)O)NC(=O)[C@H](Cc2c[nH]cn2)NC(=O)[C@H](Cc2ccc3ccccc3c2)NC(=O)[C@H](CC(N)=O)NC(=O)[C@H](CC(N)=O)NC1=O` [compound 251, Ac-W-T-I-C(3)-N-N-(2Nal)-H-D-C(3)-W-P-{D-Lys[PEG8-D-Lys(DOTA)-PEG8-COCH2Ph-4Br]}-NH2] (Ac-WTICNN[2Nal]HDCWP[dK](X11)-NH2; disulfide 4-10) was run?
Its Kd is less than 1 nM.

With `CC[C@H](C)[C@H](NC(=O)[C@@H](NC(=O)[C@H](Cc1c[nH]c2ccccc12)NC(C)=O)[C@@H](C)O)C(=O)N[C@H]1CSSC[C@@H](C(=O)N[C@@H](Cc2c[nH]c3ccccc23)C(=O)N2CCC[C@H]2C(=O)N[C@H](CCCCNC(=O)COCCOCCOCCOCCOCCOCCOCCOCCNC(=O)[C@@H](CCCCNC(=O)CN2CCN(CC(=O)O)CCN(CC(=O)O)CCN(CC(=O)O)CC2)NC(=O)CCOCCOCCOCCOCCOCCOCCOCCOCCOCCOCCOCCOCCOCCOCCOCCOCCOCCOCCOCCOCCOCCOCCOCCOCCNC(=O)Cc2ccc(Br)cc2)C(N)=O)NC(=O)[C@H](CC(=O)O)NC(=O)[C@H](Cc2c[nH]cn2)NC(=O)[C@H](Cc2ccc3ccccc3c2)NC(=O)[C@H](CC(N)=O)NC(=O)[C@H](CC(N)=O)NC1=O` [compound 255, Ac-W-T-I-C(3)-N-N-(2Nal)-H-D-C(3)-W-P-{D-Lys[PEG8-D-Lys(DOTA)-PEG24-COCH2Ph-4Br]}-NH2] as the compound, how does the Kd read?
Its Kd is 1 to 10 nM.

Same assay, conditions: 25° C., biotinylated human DLL3 immobilized on streptavidin sensor chip, 1:1 binding model; read-out: SPR KD

Which Kd does the source give for `CCC(CC)[C@H](NC(=O)[C@@H](NC(=O)[C@H](Cc1c[nH]c2ccc(F)cc12)NC(C)=O)[C@@H](C)O)C(=O)N[C@H]1CSSC[C@@H](C(=O)N[C@@H](Cc2c[nH]c3ncccc23)C(=O)N2C[C@H](F)C[C@H]2C(=O)N[C@@H](CCCCNC(=O)CN2CCN(CC(=O)O)CCN(CC(=O)O)CCN(CC(=O)O)CC2)C(N)=O)NC(=O)[C@H](CC(=O)O)NC(=O)[C@H](Cc2cnc[nH]2)NC(=O)[C@H](Cc2ccc3ccccc3c2)NC(=O)[C@H](CC(N)=O)NC(=O)[C@H](CC(N)=O)NC1=O` [compound 242, Ac-(5Fluoro-W)-T-(Env)-C(3)-N-N-(2Nal)-H-D-C(3)-(7Aza-W)-(trans4Fluoro-P)-[D-Lys(DOTA)]-NH2] (Ac-[Trp(5-F)]T[Nva(3-Et)]CNN[2Nal]HDC[Trp(7-aza)][Pro(trans-4-F)]K(DOTA)-NH2; disulfide 4-10) here?
Its Kd is less than 1 nM.

Which Kd does the source give for `CC(=O)N[C@@H](Cc1c[nH]c2ccc(F)cc12)C(=O)N[C@H](C(=O)N[C@H](C(=O)N[C@H]1CSSC[C@@H](C(=O)N[C@@H](Cc2c[nH]c3ncccc23)C(=O)N2C[C@H](F)C[C@H]2C(=O)N[C@@H](CCCCNC(=O)CN2CCN(CC(=O)O)CCN(CC(=O)O)CCN(CC(=O)O)CC2)C(N)=O)NC(=O)[C@H](CC(=O)O)NC(=O)[C@H](Cc2c[nH]cn2)NC(=O)[C@H](Cc2ccc3ccccc3c2)NC(=O)[C@H](CC(N)=O)NC(=O)[C@H](CC(N)=O)NC1=O)C1CCOCC1)[C@@H](C)O` [compound 243, Ac-(5Fluoro-W)-T-(THPG)-C(3)-N-N-(2Nal)-H-D-C(3)-(7Aza-W)-(trans4Fluoro-P)-[D-Lys(DOTA)]-NH2] (Ac-[Trp(5-F)]T[Gly(4-THP)]CNN[2Nal]HDC[Trp(7-aza)][Pro(trans-4-F)]K(DOTA)-NH2; disulfide 4-10) here?
Its Kd is less than 1 nM.

How did the Kd turn out when `CCCC[C@H](NC(=O)[C@@H](NC(=O)[C@H](Cc1c[nH]c2ccc(F)cc12)NC(C)=O)[C@@H](C)O)C(=O)N[C@H]1CSSC[C@@H](C(=O)N[C@@H](Cc2c[nH]c3ncccc23)C(=O)N2C[C@H](F)C[C@H]2C(=O)N[C@H](CCCCNC(=O)CN2CCN(CC(=O)O)CCN(CC(=O)O)CCN(CC(=O)O)CC2)C(N)=O)NC(=O)[C@H](CC(=O)O)NC(=O)[C@H](Cc2c[nH]cn2)NC(=O)[C@H](Cc2ccc3ccccc3c2)NC(=O)[C@H](CC(N)=O)NC(=O)[C@H](CC(N)=O)NC1=O` [compound 244, Ac-(5Fluoro-W)-T-(Nle)-C(3)-N-N-(2Nal)-H-D-C(3)-(7Aza-W)-(trans4Fluoro-P)-[D-Lys(DOTA)]-NH2] (Ac-[Trp(5-F)]T[Nle]CNN[2Nal]HDC[Trp(7-aza)][Pro(trans-4-F)][dK](DOTA)-NH2; disulfide 4-10) was run?
The Kd was less than 1 nM.

How did the Kd turn out when `CC(=O)N[C@@H](Cc1c[nH]c2ccc(F)cc12)C(=O)N[C@H](C(=O)N[C@@H](Cc1ccccc1C(F)(F)F)C(=O)N[C@H]1CSSC[C@@H](C(=O)N[C@@H](Cc2c[nH]c3ncccc23)C(=O)N2C[C@H](F)C[C@H]2C(=O)N[C@@H](CCCCNC(=O)CN2CCN(CC(=O)O)CCN(CC(=O)O)CCN(CC(=O)O)CC2)C(N)=O)NC(=O)[C@H](CC(=O)O)NC(=O)[C@H](Cc2cnc[nH]2)NC(=O)[C@H](Cc2ccc3ccccc3c2)NC(=O)[C@H](CC(N)=O)NC(=O)[C@H](CC(N)=O)NC1=O)[C@@H](C)O` [compound 246, Ac-(5Fluoro-W)-T-(2CF3-F)-C(3)-N-N-(2Nal)-H-D-C(3)-(7Aza-W)-(trans4Fluoro-P)-[D-Lys(DOTA)]-NH2] (Ac-[Trp(5-F)]T[Phe(2-CF3)]CNN[2Nal]HDC[Trp(7-aza)][Pro(trans-4-F)]K(DOTA)-NH2; disulfide 4-10) was run?
The Kd was less than 1 nM.

For `CC[C@H](C)[C@H](NC(=O)[C@@H](NC(=O)[C@H](Cc1c[nH]c2ccccc12)NC(C)=O)[C@@H](C)O)C(=O)N[C@H]1CSCc2ccc(cc2)CSC[C@@H](C(=O)N[C@@H](Cc2c[nH]c3ccccc23)C(=O)N2CCC[C@H]2C(=O)N[C@H](CCCCNC(=O)CN2CCN(CC(=O)O)CCN(CC(=O)O)CCN(CC(=O)O)CC2)C(N)=O)NC(=O)[C@H](CC(=O)O)NC(=O)[C@H](Cc2cnc[nH]2)NC(=O)[C@H](Cc2ccc3ccccc3c2)NC(=O)[C@H](CC(N)=O)NC(=O)[C@H](CC(N)=O)NC1=O` [compound 256, Ac-W-T-I-C(3)(pDBX)-N-N-(2Nal)-H-D-C(2)-W-P-[D-Lys(DOTA)]-NH2] (Ac-WTICNN[2Nal]HDCWP[dK](DOTA)-NH2; linker 4-10 via pXylylene), which Kd is on record?
Its Kd is 1 to 10 nM.

Which Kd does the source give for `CC(=O)N[C@@H](Cc1c[nH]c2ccc(F)cc12)C(=O)N[C@H](C(=O)N[C@H](C(=O)N[C@H]1CSSC[C@@H](C(=O)N[C@@H](Cc2c[nH]c3ncccc23)C(=O)N2C[C@H](F)C[C@H]2C(=O)N[C@H](CCCCNC(=O)CN2CCN(CC(=O)O)CCN(CC(=O)O)CCN(CC(=O)O)CC2)C(N)=O)NC(=O)[C@H](CC(=O)O)NC(=O)[C@H](Cc2cnc[nH]2)NC(=O)[C@H](Cc2ccc3ccccc3c2)NC(=O)[C@H](CC(N)=O)NC(=O)[C@H](CC(N)=O)NC1=O)C(C)(C)C)[C@@H](C)O` [compound 257, Ac-(5Fluoro-W)-T-(Tbg)-C(3)-N-N-(2Nal)-H-D-C(3)-(7Aza-W)-(trans4Fluoro-P)-[D-Lys(DOTA)]-NH2] (Ac-[Trp(5-F)]T[Tle]CNN[2Nal]HDC[Trp(7-aza)][Pro(trans-4-F)][dK](DOTA)-NH2; disulfide 4-10) here?
The Kd was less than 1 nM.
